Molecular target: T1, SLC38A9 (Homo sapiens, UniProt Q8NBW4)
T1 sequence (Q8NBW4 1-561): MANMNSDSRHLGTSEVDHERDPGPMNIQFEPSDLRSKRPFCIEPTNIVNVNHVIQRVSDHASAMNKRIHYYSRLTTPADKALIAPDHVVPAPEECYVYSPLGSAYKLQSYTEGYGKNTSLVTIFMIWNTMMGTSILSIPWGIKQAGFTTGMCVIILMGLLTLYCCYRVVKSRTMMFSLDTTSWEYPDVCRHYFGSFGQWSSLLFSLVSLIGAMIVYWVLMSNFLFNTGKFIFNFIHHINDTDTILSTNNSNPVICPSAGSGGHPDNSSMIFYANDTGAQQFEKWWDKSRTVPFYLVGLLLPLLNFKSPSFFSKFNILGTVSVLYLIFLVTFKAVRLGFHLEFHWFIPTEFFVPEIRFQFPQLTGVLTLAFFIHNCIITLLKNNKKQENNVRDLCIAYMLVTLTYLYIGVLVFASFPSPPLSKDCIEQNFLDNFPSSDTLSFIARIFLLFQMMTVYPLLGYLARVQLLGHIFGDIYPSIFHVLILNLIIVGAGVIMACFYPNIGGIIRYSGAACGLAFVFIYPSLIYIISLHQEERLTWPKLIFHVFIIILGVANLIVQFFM
Experiment: SPR
Assay type: binding

Molecule `C=CC(=O)Nc1cccc2[nH]nc(-c3nc4ccc(N5CCN(C)CC5)cc4[nH]3)c12` [LLAD, N-(3-(6-(4-Methylpiperazin-1-yl) -1H-benzo[d]imidazole-2-yl)-1H-indazol-4-yl) acrylamide] has a Kd of 1290 nM.

Source: paper PMC12648010 (Acta Pharmaceutica Sinica. B, 2025)
